Experimental data from patent publication US9410958B2, “Alkyne-activated fluorogenic azide compounds and methods of use thereof” (The Regents of the University of California, priority 2014, dated 2016).

Assays:
CHO K1 cells = assay: No-wash cell surface labeling of SiaNAl residues, CHO K1; assay type: cell-based
Protocol: Si-rhodamine 10 was evaluated as a reagent for imaging SiaNAl residues on live cell surfaces. CHO K1 cells were incubated with 50 μM Ac4ManNAl for 3 days, washed, and then incubated with 5 μM 10, 50 μM CuSO4, 300 μM BTTAA, and 1 mM sodium ascorbate. […] Cell-surface glycan labeling was visualized as it occurred in real time (FIG. 14). Background labeling was minimal on control cells treated with N-acetylmannosamine (Ac4ManNAc) (FIG. 13).

[1] = test system: M. smegmatis, C. glutamicum, L. monocytogenes; assay: No-wash peptidoglycan labeling with compound 11; assay type: cell-based; conditions: endobcnDala 14-treated, 10 or 20 μM probe, 1 hour
Protocol: Finally, the bacteria were imaged using the NIR fluorogenic azide probes. It was confirmed that azido Si-rhodamines 9, 10, and 11 would undergo an enhancement in fluorescence upon reaction with cyclooctynes. These probes were incubated with endo-bicyclononynol in vitro to generate triazole products (FIG. 24A). […] All three bacterial strains were incubated with endobcnDala 14 as before, but after washing away excess amino acid, the bacteria were incubated with 10 or 20 μM 11 for 1 hour and directly imaged without washing away excess probe (FIG. 7B). […] While the biosynthetic machinery can tolerate fluorophore-conjugated D-amino acids, allowing one-step PG imaging versus our two-step metabolic/chemical labeling approach, chemical reporter groups are much smaller than long-wavelength fluorophores and therefore minimize possible biological perturbations. […] It is hypothesized that the presence of an outer membrane (though apparently not a mycobacterial “mycomembrane”, FIG. 8A-D) limits access of compound 11 to PG. By contrast, smaller dyes were able to access both terminal alkynes and cyclooctynes in metabolically labeled E. coli PG (FIG. 27).
The bacteria were incubated with either endobcnDala or Dala and washed as described above. […]

Escherichia coli = assay: No-wash peptidoglycan labeling of Gram-negative Escherichia coli; assay type: cell-based
Protocol: E. coli incubated with 5 mM endobcnDala or Dala for 2 h from a starting OD of 0.05 and imaged in the presence of 20 μM of azido Si-rhodamine 11 as described above. Only a fraction of the bacteria incubated with endobcnDala were fluorescently labeled under these conditions. (A), (C) Fluorescence and brightfield images of E. coli incubated with 5 mM endobcnDala. (B), (D) Fluorescence and brightfield images of E. coli incubated with 5 mM Dala. Scale bar=10 μm. […] Scale bar=1 μm.
Finally, the bacteria were imaged using the NIR fluorogenic azide probes. It was confirmed that azido Si-rhodamines 9, 10, and 11 would undergo an enhancement in fluorescence upon reaction with cyclooctynes. These probes were incubated with endo-bicyclononynol in vitro to generate triazole products (FIG. 24A). […] All three bacterial strains were incubated with endobcnDala 14 as before, but after washing away excess amino acid, the bacteria were incubated with 10 or 20 μM 11 for 1 hour and directly imaged without washing away excess probe (FIG. 7B). […] While the biosynthetic machinery can tolerate fluorophore-conjugated D-amino acids, allowing one-step PG imaging versus our two-step metabolic/chemical labeling approach, chemical reporter groups are much smaller than long-wavelength fluorophores and therefore minimize possible biological perturbations. […]

HEK 293T cells = assay: No-wash live cell surface labeling and mitochondrial co-staining, HEK 293T
Protocol: Cells were grown in 8-well Lab-Tek Chambered Coverglass systems in media (HAM-F12 for CHO K1 cells, DMEM for HEK 293T cells) containing 10% fetal bovine serum, penicillin/streptomycin, and either 50 μM Ac4ManNAl or Ac4ManNAc for 3 d at 37° C., as described previously. The cells were then washed with 3×300 μL PBS, then incubated with 100 μL freshly prepared click solution. Click solution comprised of 50 μM CuSO4, 300 μM BTTAA, 2.5 mM sodium ascorbate, and 5 μM azido Si-rhodamine. This was prepared by first adding 0.5 μL 50 mM CuSO4 in H2O and 3 μL 50 mM BTTAA in H2O to 481.5 μL PBS. Next, 12.5 μL freshly prepared 100 mM sodium ascorbate in PBS was added. Finally, 2.5 μL 1 mM azido Si-rhodamine in 4:1 PBS/MeOH was added. After 15 min, the reactions were quenched with the addition of 1 μL of 100 mM bathocuproine disulfonate (BCS) in H2O (final concentration 1 mM). […] For real-time imaging, images were acquired as the labeling progressed without quenching the reaction.
HEK 293T cells were grown in a LabTek 8-well chambered glass slide in DMEM containing fetal bovine serum, penicillin/streptomycin for 3 d at 37° C. The cells were then incubated with 100 nM MitoTracker Green FM and 1 μg/mL Hoechst 33342 in fresh media for 30 min at 37° C., then media removed and the cells incubated with 100 μL PBS containing 5 μM 10. The cells were then directly imaged.
The CalFluors' performance in no-wash cell imaging experiments was evaluated. Using established methods, cell-surface glycoconjugates were metabolically labeled with peracetylated N-pentynoyl mannosamine (Ac4ManNAl), which introduces terminal alkyne groups into sialic acid residues (SiaNAl). HEK 293T cells treated in this fashion were then incubated, without fixation, with a cocktail containing 50 μM CuSO4, 300 μM BTTAA, 5 mM sodium ascorbate and 10 μM CalFluor dye.
Cells were grown with 50 μM Ac4ManNAl or Ac4ManNAc for 3 days, then subjected to click labeling with CalFluor probes. (A) Labeling glycoproteins on live cell surfaces. Cells were treated with 10 μM azide probe, 50 μM CuSO4, 300 μM BTTAA ligand, and 5 mM sodium ascorbate. The reaction was quenched with 1 mM BCS and the cells imaged without further wash steps. (B) Labeling glycoproteins on fixed cells. Cells were fixed with 3% paraformaldehyde, then treated with 10 μM CalFluor probe, 1 mM CuSO4, 100 μM TBTA ligand, and 2 mM sodium ascorbate. 0.1 mg/mL BSA was added to prevent the TBTA from precipitating over the course of the reaction.

[2] = Photophysical properties and fluorescence quantum yields of Si-rhodamines in PBS pH 7.4; assay type: physicochemical
Protocol: The fluorescence quantum yields of the purified amino, azido, and triazolyl Si-rhodamines were measured in pH 7.4 phosphate buffered saline (PBS) using cresyl violet in methanol (Φfl=0.54) as a standard (Table 1). […] The best candidate of the four, 8-azidonaphthyl-substituted Si-rhodamine 1, afforded only a 5-fold increase in fluorescence quantum yield as compared with the 29-fold enhancement observed with the corresponding fluorescein.
Fluorescence quantum yields were measured by creating 2 mM stocks of dyes in MeOH. The dyes were then diluted to 20 μM in PBS, then further diluted in PBS to various final concentrations. The absorbance and emission spectra of five different concentrations of dye were measured while keeping maximum absorbance under 0.2. Solutions of probe were excited at 600 nm, and emission was integrated from 600 to 800 nm. Plotting integrated emission vs. absorbance at 600 nm yielded a line, whose slope corresponds to the fluorescence quantum yield. Absolute quantum yields were determined by comparison with the slope of the line measured for cresyl violet in MeOH (Φfl=0.54). The reported quantum yields are the average of three sets of measurements. Absorbance spectra were recorded on a Varian Cary 50 UV-Visible spectrophotometer. Fluorescence spectra were recorded on a Photon Technology International Quanta Master 4 L-format scanning spectrofluorometer equipped with an LPS-220B 75-W xenon lamp and power supply, A-1010B lamp housing with an integrated igniter, switchable 814 photon counting/analog photomultiplier detection unit, and MD5020 motor driver. Measurements were made in 1 cm×0.4 cm quartz cuvettes with a total sample volume of 1 mL.

mammalian cells = assay: Mammalian cell surface labeling of Ac4ManNAl-treated cells; assay type: cell-based; conditions: cells labeled with Ac4ManNAl
Protocol: Compound 9 was tested as a biological imaging reagent using mammalian cells that had been metabolically labeled with peracetylated N-pentynoylmannosamine (Ac4ManNAl), which is metabolized to N-pentynoyl sialic acid (SiaNAl) and presented on cell-surface glycoconjugates. […] It was hypothesized that replacing the methoxy groups with more water soluble alkoxy substituents would maintain the electronic balance between the pendant aryl and the Si-xanthene moieties while enhancing hydrophilicity. To this end, compound 10 was synthesized in six steps from 2,4-difluoronitrobenzene (FIG. 5, and Scheme 1).
Finally, 2.5 μL 1 mM azido fluorophore in 4:1 PBS/MeOH was added. […] Microscopy was performed using a Zeiss AxioVert 200M inverted microscope using a Plan-Neofluar 40×/0.75 objective. Exposure time was 1000 ms using the FITC, Cy3, or Cy5 filters. Images were acquired and processed using SlideBook 5.0, and are shown as a single z-plane.

fixed HEK 293T cells = assay: No-wash labeling of glycoproteins on fixed cells; assay type: cell-based; conditions: 10 μM probe, 100 μM TBTA, 1 mM CuSO4, 2 mM sodium ascorbate
Protocol: (A) Labeling glycoproteins on live cell surfaces. […] (B) Labeling glycoproteins on fixed cells.
Fixed (3% paraformaldehyde) Ac4ManNAl-treated HEK 293T cells were also evaluated as substrates CalFluor labeling. In this case, copper-click reaction with 50 μM CuSO4 and 300 μM BTTAA gave poor labeling, potentially due to sequestration of the copper catalyst by denatured proteins. However, use of higher catalyst concentrations (100 μM TBTA, 1 mM CuSO4, 2 mM sodium ascorbate) gave robust labeling with 10 μM CalFluor dyes (FIG. 34B). […] Similar results were achieved when performing the same experiments on fixed CHO K1 cells.

[3] = test system: sialic acids in developing zebrafish; assay: Visualizing sialic acids in developing zebrafish; assay type: in vivo; conditions: 24 or 36 hpf, imaged without washing
Protocol: The probes were tested for visualization of glycans in vivo. […] To test the utility of CalFluors in this system for such applications, zebrafish embryos at the single-cell stage were injected with SiaNAl. After either 24 or 36 hours post fertilization (hpf), the embryos were bathed in a solution containing a CalFluor probe along with copper catalyst.
Zebrafish were injected with 50 pmol SiaNAl at the one to four-cell stage and allowed to develop over time. (A) Real-time labeling of sialic acids. After 24 hpf, zebrafish were incubated in a solution containing 1 μM CalFluor 580 and copper catalyst. […] (B) Comparing no-wash labeling performance by azide probes. After 36 hpf, the embryos were transferred to a solution containing the fluorophore (1 μM for CalFluor 580 and AlexaFluor 594 alkyl azide, or 5 μM for 3-azido-7-hydroxycoumarin) and copper catalyst and imaged without washing after 20 minutes.

[4] = in methanol; cited from earlier work
[5] = test system: wild-type L. monocytogenes; assay: D-alanine competition experiment; conditions: 5 mM cyclooctyne amino acid, 0 or 20 mM D-alanine
Protocol: The bacteria were incubated with 5 mM cyclooctyne amino acid, in the presence of either 0 or 20 mM D-alanine, and labeled following the general procedure.
Bacteria were grown to an optical density (OD) of 0.4 in their respective media (7H9 for M. smegmatis, LB for C. glutamicum, BHI for L. monocytogenes) at 37° C. (M. smegmatis and L. monocytogenes) or 30° C. (C. glutamicum). Then, 5 mM D-amino acid was added (from a 1 M stock in H2O, 1 eq. NaOH was added to help solubilize compounds 12, 13, and 14) and the cells grown for one doubling time. The bacteria were then added to a 96-well V-bottom plate at 200 μL/well and pelleted by centrifugation at 3500 rpm for 3 min. The supernatant was removed and the cells resuspended in 200 μL PBS and pelleted again. This wash process was repeated twice more. The cells were then incubated with 100 μL of 20 μM azido-PEG3-carboxyrhodamine 110 (Click Chemistry Tools) in PBS (made by diluting a 1 mM stock in 9:1 PBS/DMSO) and placed in a 37° C. shaker for 1 h. Alternatively, for alkDala, labeling was performed by incubation with 100 μL of 20 μM azido-PEG3-carboxyrhodamine 110, 128 μM TBTA, 1 mM CuSO4, and 1.2 mM sodium ascorbate in PBS in a 37° C. shaker for 1 h. The cells were washed three times, then fixed with 4% paraformaldehyde for 10 min at rt. The cells were washed another three times, then studied by flow cytometry and microscopy.

Compound: CN(C)c1ccc2c(c1)[Si](C)(C)C1=CC(=[N+](C)C)C=CC1=C2c1cc(N=[N+]=[N-])c(OCCOCCOS(=O)(=O)O)cc1OCCOCCOS(=O)(=O)[O-] [Compound 11]
- cell-surface labeling (CHO K1 cells; Ac4ManNAl-treated CHO K1, no wash, 15 min): robust cell-surface labeling
- background labeling (CHO K1 cells; CHO K1, control or unwanted labeling): no unwanted background or mitochondrial labeling
- no-wash fluorescence signal on bacteria [1]: Clear fluorescence signal over background
- labeling of peptidoglycan with dye (Escherichia coli; 5 mM endobcnDala, 20 μM probe): not efficiently labeled
- cell-surface labeling (HEK 293T cells; Ac4ManNAl-treated HEK 293T, no wash): robust cell-surface labeling
- background, intracellular or mitochondrial labeling (HEK 293T cells; HEK 293T): no unwanted background or mitochondrial labeling
- cell permeability (HEK 293T cells; HEK 293T): not cell permeable

Compound: COc1cc(OC)c(C2=C3C=CC(=[N+](C)C)C=C3[Si](C)(C)c3cc(N(C)C)ccc32)cc1N=[N+]=[N-] [Compound 9-N3, 3-Azido-4,6-dimethoxy-Si-rhodamine]
- λabs [2]: 654 nm
- λem [2]: 666 nm
- Φfl ([2]; cresyl violet in methanol as standard): 0.0042
- Change in Φfl ([2]; increase (↑), triazole relative to the azide): 48 fold
- background labeling (mammalian cells): significant alkyne-independent background labeling even after repeated washing steps

Compound: [N-]=[N+]=Nc1cc2ccc(O)cc2oc1=O
- labeling of fixed cells (fixed HEK 293T cells): performed comparably to the CalFluors
- no-wash alkyne-dependent labeling [3]: obscured alkyne-dependent labeling

Compound: cresyl violet
- Φfl of the standard [4]: 0.54

Compound: NC(CNC(=O)OC[C@@H]1[C@@H]2CCC#CCC[C@@H]21)C(=O)O (some centres unmarked) [Compound 14]
- metabolic incorporation of D-amino acid (Escherichia coli): similarly to the Gram-positive bacteria
- effect of excess D-alanine on labeling [5]: excess D-alanine decreases the fluorescence intensity
